ChEMBL document CHEMBL1201862, “PubChem BioAssay data set” (2004)
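In this assay, cells in 96-well plates receive the compound at five concentrations for 48 hours. Endpoints are linearly interpolated between the surrounding concentrations. GI50 = concentration required for 50% inhibition of growth.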 The source made the active and inactive calls. Rule as the data show it: active = GI50 up to about 1.1 µM and inactive = higher.

Legend:
Assay in all cases: NCI anticancer screen, dose series, 48 h
786-0 = tested on: 786-0
CAKI-1 = tested on: CAKI-1
DU-145 = tested on: DU-145
HCT-116 = tested on: HCT-116
HOP-62 = tested on: HOP-62
HOP-92 = tested on: HOP-92
Hs-578T = tested on: Hs-578T
K562 = tested on: K562
MCF7 = tested on: MCF7
MDA-N = tested on: MDA-N
SK-MEL-2 = tested on: SK-MEL-2
SK-MEL-5 = tested on: SK-MEL-5
SK-OV-3 = tested on: SK-OV-3
SN12C = tested on: SN12C
SNB-19 = tested on: SNB-19
SR = tested on: SR
TK-10 = tested on: TK-10
U-251 = tested on: U-251
UACC-257 = tested on: UACC-257
UACC-62 = tested on: UACC-62

SMILES | GI50 (786-0) | GI50 (CAKI-1) | GI50 (DU-145) | GI50 (HCT-116) | GI50 (HOP-62) | GI50 (HOP-92) | GI50 (Hs-578T) | GI50 (K562) | GI50 (MCF7) | GI50 (MDA-N) | GI50 (SK-MEL-2) | GI50 (SK-MEL-5) | GI50 (SK-OV-3) | GI50 (SN12C) | GI50 (SNB-19) | GI50 (SR) | GI50 (TK-10) | GI50 (U-251) | GI50 (UACC-257) | GI50 (UACC-62)
CC(C)(C)c1cc2c(O)c(c1)Cc1cc(C(C#N)(Cc3ccc4ccccc4c3)Cc3ccc4ccccc4c3)cc(c1O)Cc1cc(C(C)(C)C)cc(c1O)Cc1cc(C(C#N)(Cc3ccc4ccccc4c3)Cc3ccc4ccccc4c3)cc(c1O)C2 | > 100 µM (inactive) | > 100 µM (inactive) | > 100 µM (inactive) | > 100 µM (inactive) | > 100 µM (inactive) | > 100 µM (inactive) | > 100 µM (inactive) | > 100 µM (inactive) | > 100 µM (inactive) | > 100 µM (inactive) | > 100 µM (inactive) | > 100 µM (inactive) | > 100 µM (inactive) | > 100 µM (inactive) | > 100 µM (inactive) | 60.5 µM (inactive) | > 100 µM (inactive) | 67 µM (inactive) | > 100 µM (inactive) | > 100 µM (inactive)
N#Cc1ccc(-c2nc3c(N)nc(-c4ccccc4)nc3o2)cc1 | > 100 µM (inactive) | > 100 µM (inactive) | 84.1 µM (inactive) | 31.8 µM (inactive) | 19.7 µM (inactive) | 31.5 µM (inactive) | > 100 µM (inactive) | > 100 µM (inactive) | > 100 µM (inactive) | > 100 µM (inactive) | > 100 µM (inactive) | > 100 µM (inactive) |  | > 100 µM (inactive) | 55.1 µM (inactive) | > 100 µM (inactive) | > 100 µM (inactive) | 5.11 µM (inactive) | > 100 µM (inactive) | > 100 µM (inactive)
c1ccc(-c2ccc(-c3cc4ccccc4[nH]3)cc2)cc1 | > 100 µM (inactive) | 61.7 µM (inactive) | > 100 µM (inactive) | > 100 µM (inactive) | > 100 µM (inactive) | > 100 µM (inactive) | > 100 µM (inactive) |  | > 100 µM (inactive) | > 100 µM (inactive) | > 100 µM (inactive) | > 100 µM (inactive) | > 100 µM (inactive) | > 100 µM (inactive) | > 100 µM (inactive) | > 100 µM (inactive) | > 100 µM (inactive) | > 100 µM (inactive) | > 100 µM (inactive) | > 100 µM (inactive)
[O-][S+]1SC(=S)C2C=CC=NC21 (stereo unspecified) | 14.5 µM (inactive) | > 100 µM (inactive) | 16.6 µM (inactive) | 13.7 µM (inactive) |  | 15.8 µM (inactive) | 20.7 µM (inactive) | 20.9 µM (inactive) | 17.5 µM (inactive) | 14.7 µM (inactive) | 19.4 µM (inactive) | 18.8 µM (inactive) | 32.6 µM (inactive) | 14.8 µM (inactive) | 26.1 µM (inactive) | 11.5 µM (inactive) | 18.1 µM (inactive) | 18 µM (inactive) | 15.4 µM (inactive) | 21.3 µM (inactive)
O=C1O/C(=C(/Cl)c2cccc3ccccc23)c2ccccc21 | 82.2 µM (inactive) | > 100 µM (inactive) | > 100 µM (inactive) | > 100 µM (inactive) | 46.3 µM (inactive) | > 100 µM (inactive) | 32.4 µM (inactive) | > 100 µM (inactive) | 0.735 µM (active) | > 100 µM (inactive) |  | > 100 µM (inactive) | > 100 µM (inactive) | > 100 µM (inactive) | > 100 µM (inactive) | > 100 µM (inactive) | > 100 µM (inactive) | 96.8 µM (inactive) | > 100 µM (inactive) | > 100 µM (inactive)
COC(=O)[C@]12CC[C@H]3CN(C(=O)OCc4ccccc4)[C@H]([C@H]31)[C@H](c1ccco1)N2 | 77.8 µM (inactive) | 35.8 µM (inactive) | > 100 µM (inactive) | 40.8 µM (inactive) | 90.2 µM (inactive) | 29.4 µM (inactive) | 42.4 µM (inactive) | 30.4 µM (inactive) | 42.3 µM (inactive) | 30.8 µM (inactive) | 55.1 µM (inactive) | 17 µM (inactive) | > 100 µM (inactive) | 46.2 µM (inactive) | > 100 µM (inactive) | 44.9 µM (inactive) | > 100 µM (inactive) | 84.7 µM (inactive) | 29.9 µM (inactive) | 23.7 µM (inactive)
CC(=O)Oc1ccc2c(c1)CC[C@@H]1C2[C@@H](O[N+](=O)[O-])C[C@@]2(C)C1CC[C@@H]2O (stereo partly specified) | 33.8 µM (inactive) | 78 µM (inactive) | 28.7 µM (inactive) | 29.4 µM (inactive) | 17.1 µM (inactive) | > 88.1 µM (inactive) | 14.4 µM (inactive) | 11.9 µM (inactive) | 41 µM (inactive) | 5.83 µM (inactive) | 32.1 µM (inactive) | 24.7 µM (inactive) | 62.5 µM (inactive) | 34.5 µM (inactive) | 35.6 µM (inactive) | 16.4 µM (inactive) | 49.8 µM (inactive) | 27.6 µM (inactive) | 67.5 µM (inactive) | 26.5 µM (inactive)
